The record followed here is patent publication US5567722A, “Cyanoguanidines as K-channel blockers” (The Upjohn Company, priority 1995, dated 1996).

One test concerns K+ channel of rabbit mesenteric artery (RMA). Nature of the test: K+ channel antagonism: inhibition of pinacidil-induced relaxation of norepinephrine-contracted rabbit mesenteric artery (RMA) rings. In kind it is cell-based. The settings on record: Oryctolagus cuniculus, 0.25 h; Table III; 5 μM; inhibition of relaxation by pinacidil 1 μM at 15 min; mean ± sem (number of rings); >=65% considered active, <20% inactive; read-out: RMA K+ Channel Antagonism % I at 5 μM. As for the experimental part: The results for potassium channel blocking were obtained by using isolated rabbit mesenteric artery (RMA) procedures. Norepinephrine (5 μM) was used to contract the RMA rings twice, with an hour separating the two contractions. During this hour the tissues equilibrated in physiological salt solution at a resting tension of 1 gram. Upon the plateau of the second contraction 1 μM pinacidil was added to all tissues and the resulting relaxation time course was studied for thirty minutes. […] By studying the ability of the test compounds to inhibit this pinacidil-induced relaxation, the degree of potassium antagonism could be determined. The compounds were applied to the tissues for one hour between the two contractions and the pinacidil-induced relaxation was studied in the continuing presence of the compounds. Thus, the total time of pretreatment with the test compound was 75 minutes before the addition of pinacidil. […]
Data for K^+ channel antagonist activity on rabbit mesenteric artery (RMA) and natriuretic efficacy after […] (IP) administration to rats are collected in Tables III and IV. It was known, for example, that a compound where both methyl groups on the benzylic carbon of Example 9 had been removed was a weak PCO rather than a K^+ channel antagonist. Similarly a compound in which the phenyl was attached directly to the guanidine nitrogen was also a K^+ channel agonist.
^a This is a measure of a compound's ability to inhibit the relaxatio
of norepinephrine (5 μM) contracted rabbit mesenteric artery rings by
pinacidil (1 μM). It is expressed as percent inhibition (mean ± sem
at an inhibitor concentration of 5 μM. Compounds with 65% or g greater
inhibition at 5 μM are considered to be active, with 2065\% inhibition
On to `CC(NC(=NC#N)Nc1cccnc1)c1ccccc1Cl` (centres unmarked) [Compound 26], for which the inhibition at 5 µM was determined as 74.7 ± 2.7%.

As for `N#CN=C(Nc1cccnc1)N[C@H](CO)c1ccccc1` [Compound 27], the inhibition at 5 µM was found to be 92.5 ± 3.1%.

Consider `CC(NC(=NC#N)Nc1cccnc1)c1ccc(Cl)c(Cl)c1` (centres unmarked) [Compound 23], for which the inhibition at 5 µM was determined as 90.8 ± 2.8%.

`CC[C@@H](NC(=NC#N)Nc1cccnc1)c1ccccc1` [Compound 22, (R) N"-Cyano-N-(3-pyridyl)-N'-(1-phenylpropyl)guanidine]: the inhibition at 5 µM came to 89 ± 3.2%.

Consider `N#CN=C(Nc1cccnc1)NC1(c2ccccc2)CC=CC1` [Compound 3, N"-Cyano-N'-(1-phenylcyclopent-3-enyl)-N-(3-pyridyl)guanidine], for which the inhibition at 5 µM stood at 91%.

With `CC(NC(=NC#N)Nc1cccnc1)c1cc(Cl)ccc1Cl` (centres unmarked) [Compound 24], the inhibition at 5 µM came to 86.9 ± 4%.

In the case of `N#CN=C(Nc1cccnc1)NC(c1ccccc1)C1CC1` (centres unmarked) [Compound 17, N"-Cyano-N-(3-pyridyl)-N'-phenylcyclopropylmethylguanidine], the inhibition at 5 µM came to 93.3 ± 2.2%.

Regarding `CC(C)C(NC(=NC#N)Nc1cccnc1)c1ccccc1` (centres unmarked) [Compound 12], the inhibition at 5 µM was 85.5 ± 0.6%.

For `Cc1ccccc1C(C)NC(=NC#N)Nc1cccnc1` (centres unmarked) [Compound 14], the inhibition at 5 µM is 58.7 ± 8.3%.

As to `N#CN=C(Nc1cccnc1)NC(c1ccccc1)C1CCCC1` (centres unmarked) [Compound 18], the inhibition at 5 µM worked out at 88.1 ± 2%.

With `CC(NC(=NC#N)Nc1cccnc1)c1cccc(Cl)c1` (centres unmarked) [Compound 25], the inhibition at 5 µM came to 89.9 ± 0.1%.

Regarding `COCC(NC(=NC#N)Nc1cccnc1)c1ccccc1` (centres unmarked) [Compound 16], the inhibition at 5 µM turned out to be 51.1 ± 11.6%.

In the case of `CCC(NC(=NC#N)Nc1cccnc1)c1ccccc1` (centres unmarked) [Compound 2, N"-Cyano-N-(3-pyridyl)-N'-(1-phenyl)propylguanidine], the inhibition at 5 µM was 78.8 ± 3.9%.

Take `CC(C)(NC(=NC#N)Nc1cccnc1)c1ccccc1` [Compound 9]: the inhibition at 5 µM was 89.5 ± 3.6%.

In the case of `Cc1cccc(C(C)NC(=NC#N)Nc2cccnc2)c1` (centres unmarked) [Compound 15], the inhibition at 5 µM came out at 82 ± 3.9%.

For the molecule `CC(NC(=NC#N)Nc1cccnc1)c1ccccc1` (racemic) [Compound 7, N"-Cyano-N-(3-pyridyl)-N'-(1-phenyl)ethylguanidine], the inhibition at 5 µM was 65.3 ± 10.2%.

For `CC[C@H](NC(=NC#N)Nc1cccnc1)c1ccccc1` [Compound 20], the inhibition at 5 µM stood at 13.9 ± 7.2%.

Turning to `C[C@@H](NC(=NC#N)Nc1cccnc1)c1ccccc1` [Compound 1, (R)-N"-Cyano-N-(3-pyridyl)-N'-(1-phenyl)ethylguanidine], the inhibition at 5 µM turned out to be 86.3 ± 5%.

For the molecule `C[C@H](NC(=NC#N)Nc1cccnc1)c1ccccc1` [Compound 8], the inhibition at 5 µM came to 22.1 ± 21.2%.

For the molecule `CCCC(NC(=NC#N)Nc1cccnc1)c1ccccc1` (centres unmarked) [Compound 28], the inhibition at 5 µM is 85.2 ± 4.8%.

On to `N#CN=C(Nc1cccnc1)NC1(c2ccccc2)CCCCC1` [Compound 10], for which the inhibition at 5 µM is 85.5 ± 2.2%.

Take `CC(NC(=NC#N)Nc1cccnc1)c1cccc(C(F)(F)F)c1` (centres unmarked) [Compound 21]: the inhibition at 5 µM came to 85.3 ± 3.2%.

Take `N#CN=C(Nc1cccnc1)NC1(c2ccccc2)CCCC1` [Compound 11]: the inhibition at 5 µM came to 90.4 ± 2.3%.

Take `N#CN=C(Nc1cccnc1)N[C@@H](CO)c1ccccc1` [Compound 4, (R)-N"-Cyano-N'-(2-hydroxy-1-phenylethyl)-N-(3-pyridyl)guanidine]: the inhibition at 5 µM was found to be 2.6 ± 1.7%.

Regarding `CC(C)(C)C(NC(=NC#N)Nc1cccnc1)c1ccccc1` (centres unmarked) [Compound 13], the inhibition at 5 µM is 83.2 ± 12%.

Regarding `N#CN=C(Nc1cccnc1)NC(c1ccccc1)C1CCC1` (centres unmarked) [Compound 19], the inhibition at 5 µM amounted to 96 ± 2.1%.

Still in this test, the particulars now being: Oryctolagus cuniculus; Table III footnote; 0.1 μM; read-out: RMA K+ channel antagonism, Percent inhibition at 0.1 μM.
Regarding `CC[C@@H](NC(=NC#N)Nc1cccnc1)c1ccccc1` [Compound 22, (R) N"-Cyano-N-(3-pyridyl)-N'-(1-phenylpropyl)guanidine], the inhibition at 0.1 µM came out at 5 ± 2%.

The test is the same for the next values; noted with them: Oryctolagus cuniculus; Table III footnote; 0.25 μM; read-out: RMA K+ channel antagonism, Percent inhibition at 0.25 μM.
With `CC[C@@H](NC(=NC#N)Nc1cccnc1)c1ccccc1` [Compound 22, (R) N"-Cyano-N-(3-pyridyl)-N'-(1-phenylpropyl)guanidine], the inhibition at 0.25 µM came to 52 ± 1%.

Staying with this test, now noted: Oryctolagus cuniculus; Table III footnote; 0.5 μM; read-out: RMA K+ channel antagonism, Percent inhibition at 0.5 μM.
For the molecule `CC[C@@H](NC(=NC#N)Nc1cccnc1)c1ccccc1` [Compound 22, (R) N"-Cyano-N-(3-pyridyl)-N'-(1-phenylpropyl)guanidine], the inhibition at 0.5 µM was found to be 81.5 ± 5.9%.

Turning to `CC(C)C(NC(=NC#N)Nc1cccnc1)c1ccccc1` (centres unmarked) [Compound 12], the inhibition at 0.5 µM worked out at 43.6%.

For `N#CN=C(Nc1cccnc1)NC1(c2ccccc2)CCCC1` [Compound 11], the inhibition at 0.5 µM is 78.8 ± 4.4%.

Consider `CC(C)(C)C(NC(=NC#N)Nc1cccnc1)c1ccccc1` (centres unmarked) [Compound 13], for which the inhibition at 0.5 µM was found to be 82 ± 1.8%.

Still in this test, the particulars now being: Oryctolagus cuniculus; Table III footnote; 1 μM; read-out: RMA K+ channel antagonism, Percent inhibition at 1 μM.
Regarding `CC(C)C(NC(=NC#N)Nc1cccnc1)c1ccccc1` (centres unmarked) [Compound 12], the inhibition at 1 µM turned out to be 78.2 ± 1.9%.

`CCC(NC(=NC#N)Nc1cccnc1)c1ccccc1` (centres unmarked) [Compound 2, N"-Cyano-N-(3-pyridyl)-N'-(1-phenyl)propylguanidine]: the inhibition at 1 µM came out at 25.6 ± 17.2%.

Turning to `C[C@@H](NC(=NC#N)Nc1cccnc1)c1ccccc1` [Compound 1, (R)-N"-Cyano-N-(3-pyridyl)-N'-(1-phenyl)ethylguanidine], the inhibition at 1 µM worked out at 17.1%.

Staying with this test, now noted: Oryctolagus cuniculus; Table III footnote; 2.5 μM; read-out: RMA K+ channel antagonism, Percent inhibition at 2.5 μM.
Turning to `C[C@@H](NC(=NC#N)Nc1cccnc1)c1ccccc1` [Compound 1, (R)-N"-Cyano-N-(3-pyridyl)-N'-(1-phenyl)ethylguanidine], the inhibition at 2.5 µM is 88.9 ± 11.2%.

The test is the same for the next values; noted with them: Oryctolagus cuniculus; Table IV; 0.05 μM; lowest concentration giving >20% inhibition or lowest tested; read-out: RMA K+ Channel Antagonism % I (conc. μM).
For `N#CN=C(Nc1cccnc1)NC1(c2cccc(Br)c2)CCC1` [Compound 31], the inhibition at 0.05 µM turned out to be 50%.

As for `N#CN=C(Nc1cccnc1)NC1(c2cccc(F)c2F)CCC1` [Compound 48], the inhibition at 0.05 µM came out at 45%.

As for `N#CN=C(Nc1cccnc1)NC1(c2cccc(F)c2)CCC1` [Compound 42], the inhibition at 0.05 µM turned out to be 50%.

As to `CCC(NC(=NC#N)Nc1cccnc1)c1ccccc1F` (centres unmarked) [Compound 43], the inhibition at 0.05 µM worked out at 30%.

For the molecule `N#CN=C(Nc1cccnc1)NC1(c2cccc(Cl)c2)CCC1` [Compound 45, N'-[1-(3-Chlorophenyl)cyclobutyl]-N"-cyano-N-(3-pyridyl)guanidine], the inhibition at 0.05 µM stood at 91%.

As to `N#CN=C(Nc1ccc(N)nc1)NC1(c2cccc(F)c2)CCC1` [Compound 47], the inhibition at 0.05 µM turned out to be 79%.

For `N#CN=C(Nc1cccnc1)NC1(c2cccc(Cl)c2F)CCC1` [Compound 32], the inhibition at 0.05 µM was found to be 66%.

The same test, now with this note: Oryctolagus cuniculus; Table IV; 0.5 μM; lowest concentration giving >20% inhibition or lowest tested; read-out: RMA K+ Channel Antagonism % I (conc. μM).
On to `N#CN=C(Nc1cccnc1)NC1(c2ccccc2)CCC1` [Compound 51, N"-Cyano-N-(3-pyridyl)-N'-(1-phenylcyclobutyl)guanidine], for which the inhibition at 0.5 µM was found to be 82.9%.

As to `N#CN=C(Nc1ccc(N)nc1)NC1(c2ccccc2)CCC1` [Compound 46, N"-Cyano-N-(6-amino-3-pyridyl)-N'-(1-phenylcyclobutyl)guanidine], the inhibition at 0.5 µM was 45%.

As for `CC(NC(=NC#N)Nc1cccnc1)c1cccc(F)c1F` (centres unmarked) [Compound 58], the inhibition at 0.5 µM turned out to be 92.1%.

With `CCC(NC(=NC#N)Nc1cccnc1)c1cccc(Cl)c1` (centres unmarked) [Compound 52], the inhibition at 0.5 µM was 94%.

Consider `CCC(NC(=NC#N)Nc1cccnc1)c1cccc(F)c1` (centres unmarked) [Compound 38], for which the inhibition at 0.5 µM is 68.6%.

For the molecule `CC(NC(=NC#N)Nc1cccnc1)c1cc(F)cc(F)c1` (centres unmarked) [Compound 40], the inhibition at 0.5 µM stood at 55.5%.

Staying with this test, now noted: Oryctolagus cuniculus; Table IV; 1 μM; lowest concentration giving >20% inhibition or lowest tested; read-out: RMA K+ Channel Antagonism % I (conc. μM).
As for `C[C@@H](NC(=NC#N)Nc1ccc(Cl)nc1)c1ccccc1` [Compound 34], the inhibition at 1 µM turned out to be 49.5%.

The test is the same for the next values; noted with them: Oryctolagus cuniculus; Table IV; 5 μM; lowest concentration giving >20% inhibition or lowest tested; read-out: RMA K+ Channel Antagonism % I (conc. μM).
Take `CN(C)c1ccc(NC(=NC#N)N[C@H](CO)c2ccccc2)cn1` [Compound 37]: the inhibition at 5 µM was determined as 6.6%.

For the molecule `CCN(CC)c1ccc(NC(=NC#N)N[C@H](C)c2ccccc2)cn1` [Compound 33], the inhibition at 5 µM stood at 10.8%.

On to `CCC(NC(=NC#N)Nc1ccc[n+]([O-])c1)c1ccccc1` (centres unmarked) [Compound 54, N"-Cyano-N'-(1-phenylpropyl)-N-(3-pyridyl)guanidine, pyridine N-oxide], for which the inhibition at 5 µM worked out at 15.4%.

With `COCCCNc1ccc(NC(=NC#N)N[C@H](C)c2ccccc2)cn1` [Compound 57], the inhibition at 5 µM amounted to 7.8%.

As for `CCNc1ccc(NC(=NC#N)N[C@H](C)c2ccccc2)cn1` [Compound 56], the inhibition at 5 µM came to 19.1%.

Turning to `CCC(NC(=NC#N)Nc1ccc(NC(C)=O)nc1)c1ccccc1` (centres unmarked) [Compound 30], the inhibition at 5 µM was 0%.

For the molecule `N#CN=C(Nc1cccnc1)NC1(c2ccccc2)CC1` [Compound 63], the inhibition at 5 µM amounted to 86%.

Regarding `CNc1ccc(NC(=NC#N)NC(C)c2ccccc2)cn1` (centres unmarked) [Compound 29], the inhibition at 5 µM was determined as 63.4%.

As for `CCC(NC(=NC#N)Nc1cccnc1)c1cccc(I)c1` (centres unmarked) [Compound 41], the inhibition at 5 µM is 90.1%.

Consider `CC(NC(=NC#N)Nc1cccnc1)c1cccc(F)c1` (centres unmarked) [Compound 50], for which the inhibition at 5 µM was 94.6%.

Regarding `C[C@@H](NC(=NC#N)Nc1ccc[n+]([O-])c1)c1ccccc1` [Compound 55, (R)-N"-Cyano-N'-(1-phenylethyl)-N-(3-pyridyl)guanidine, pyridine N-oxide], the inhibition at 5 µM was 16.3%.

Take `C[C@@H](NC(=NC#N)Nc1ccc(N(C)C)nc1)c1ccccc1` [Compound 35]: the inhibition at 5 µM turned out to be 10.6%.

Turning to `CC(C)Nc1ccc(NC(=NC#N)N[C@H](C)c2ccccc2)cn1` [Compound 59], the inhibition at 5 µM came out at 8.5%.

Regarding `CC[C@@H](NC(=NC#N)Nc1ccc(N(C)C)nc1)c1ccccc1` [Compound 53, (R)-N"-Cyano-N'-(1-phenylpropyl)-N-[6-(dimethylamino)-3-pyridyl]guanidine], the inhibition at 5 µM stood at 4.1%.

The test is the same for the next values; noted with them: Table IV; concentration not printed (empty parentheses).
In the case of `CC(NC(=NC#N)Nc1ccc(N)nc1)c1ccccc1` (centres unmarked) [Compound 36], the “RMA K+ Channel Antagonism % I (conc. μM)” value amounted to 66.5%.
